Test results published in patent US12076332B2, “Treatment of lysosomal storage disorders” (The Regents of the University of California, priority 2018, dated 2024).
“Also recorded” adds a separate entry of the source.

How the values were obtained:
WT mice [1] = test: IHC anti-LAMP1 on brain sections of WT mice; format: in vivo, mouse; settings: daily s.c. injection for 4.5 months
Protocol: (§1) FIG. 8. […] Images from cerebral cortex shown. […] Three mice for each experiment group.
(§2) For paraffin embedding, mice brain were fixed in 4% paraformaldehyde (PFA) overnight at 4° C., then mice brain were dehydrated in a graded series of ethanol, cleared with xylene, and infiltrated with paraffin. Paraffin-embedded blocks were cut on a microtome in 6-μm sagittal sections. Immunohistochemistry experiments were […] performed using the Universal Vectastain Elite ABC HRP Kit (PK6200, Vector Laboratories). For all immunostainings were used sagittal sections, rinsed in PBS1×-Triton 0.1% and treated with 1% H2O2 for 30 min to quench endogenous peroxidase activity. At this point the sections were exposed at PBS or at Proteinase K digestion (50 μg/ml) for 2 minutes at 37° C. to detect protease resistant structures. After this point the sections were blocked for 1 hour in PBS1×-TritonX-100 0.1%-2% Horse Serum and then incubated with specific antibodies overnight at […], followed by incubation in biotinylated universal antibody (Vector Laboratories) for 90 minutes at room temperature and in ABC reagent (Vector Laboratories) for 45 minutes at room temperature. Sections were dehydrated and then mounted with Leica CV ULTRA (Leica micro systems). Visualization was performed using 3,3-diaminobenzidine tetrahydrochloride (DAB Vector Laboratories). […]

MPS-IIIA mice [2] = test: TEM analysis of number/size of lysosomes; format: in vivo, mouse
Text: as §1

MPS-IIIA mice [3] = test: IHC anti-LAMP1 on brain sections; format: in vivo, mouse; settings: daily s.c. injection for 4.5 months
Protocol: as §1, §2

MPS-IIIA mice [4] = test: IHC anti-UbK63 on brain sections; format: in vivo, mouse; settings: CLR01-treated MPS-IIIA brain vs control MPS-IIIA brain
Text: (§3) FIG. 9. Panels A and B, show anti-LC3 immunofluorescence on brain sagittal sections from the four experimental groups of mice. The number of LC3-positive dots (either total or large dots) were quantified in 15 different fields from the cortical regions for each group. Three mice for each experimental group. […] Panel C) Immunofluorescence analysis of colocalization in MPS-IIIA mice brain sagittal sections between LC3 (green) and Lamp1 (red), LC3 (green) and Neurofilament (red). […] Images from cerebral cortex shown.
For paraffin embedding, mice brain were fixed in 4% paraformaldehyde (PFA) overnight at 4° C., then mice brain were dehydrated in a graded series of ethanol, cleared with xylene, and infiltrated with paraffin. Paraffin-embedded blocks were cut on a microtome in 6-μm sagittal sections. Immunohistochemistry experiments were […] performed using the Universal Vectastain Elite ABC HRP Kit (PK6200, Vector Laboratories). For all immunostainings were used sagittal sections, rinsed in PBS1×-Triton 0.1% and treated with 1% H2O2 for 30 min to quench endogenous peroxidase activity. […]
(§4) To evaluate whether the normalization of the lysosomal compartment mediated by amyloid deposition inhibition was also associated to a functional recovery of lysosomes, the ALP was analyzed in MPS-IIIA mouse brain upon CLR01 treatment. […]

MPS-IIIA mice [5] = test: Contextual fear conditioning test; format: in vivo, mouse; settings: daily s.c. injection for 4.5 months, 9 months of age
Text: FIG. 7. […] Panel B) TEM analysis of synaptic vesicles number. […] Panel C) Contextual fear condition task.

MPS-IIIA mice [6] = settings: MPS-IIIA mouse brain, daily s.c. injection for 4.5 months, 9 months of age
Text: Panel B) TEM analysis of synaptic vesicles number. […] The arrows indicate the synaptic cleft. ***p<0.0001 vs WT+Saline; ###p<0.0001 vs MPS-IIIA+saline, One-way ANOVA analysis with Bonferroni's multiple comparison test.

WT mice [7] = test: Anti-LC3 immunofluorescence on brain sections of WT mice; format: in vivo, mouse; settings: CLR01-treated WT mice
Text: as §3
(§5) Medial sagittal sections of frozen brain tissue were cut on a cryostat at either 12 or 40 μm of thickness, permeabilized (PBS, 0.2% Tween[…]20, and 10% fetal bovine serum), and stained with appropriate primary and secondary antibodies overnight at […] Sections were analyzed by Confocal microscope Zeiss LSM 710 using either 63× or 40× objectives. Stained sections were mounted with Vectashield (Vector Laboratories, CA, USA).
as §4

WT mice [8] = settings: daily s.c. injection for 4.5 months
MPS-IIIA mice [9] = test: Thioflavin S staining of amyloid deposits in brain sections; format: in vivo, mouse
Text: CLR01 was produced in the facility of Professor Gal Bitan (Associate Professor of Neurology, Department of Neurology, University of California, UCLA). […] […] CLR01 dosage has been chosen on the basis of safety and pharmacological characterization of CLR01 in mice (Attar et al. (2014) BMC Parmacol. & Toxicol 15: 23).
After euthanization, mouse brain was collected from each experimental group and perfused with phosphate-buffered saline (PBS pH 7,4) to completely clear blood from tissue. The brains were divided in two equal parts: half of each was frozen in dry ice and used for biochemical analysis. The other halves were fixed in 4% (w/v) paraformaldehyde in PBS and embedded in Optimal cutting temperature compound (OCT compound) or paraffin.
For thioflavin S histochemistry were used cryosections (12 μm), then sections were incubated in 0.1% thioflavin S for 10 min. Slides were immersed to 80% ethanol solution for 5 min, and mounted using FLUORSAVE™ reagent. Positive staining was observed using a Leica DM5500 scan.
The inventors therefore tested whether CLR01 (FIG. 4, panel A), was effective in targeting and destroying amyloid aggregation in MPS IIIA mice. […] Both treatments ended at 7 months of age, when the neuropathological phenotype becomes evident in MPS-IIIA mice (Lau et al. (2008) Behav. Brain Res. 191: 130-136; Sambri et al. (2016) EMBO Mol. Med. e201606965; Sorrentino et al. (2013) EMBO Mol. Med. 5: 675-690; Wilkinson et al. (2012) PloS one, 7: e35787). The two different treatment regimens allowed evaluation of the potential therapeutic effect of CLR01 resulting from either prevention or disassembly of amyloid aggregation.
The potential therapeutic efficacy of CLR01 in MPS-IIIA was further tested by treating MPS-IIIA mice at 4.5 months of age (before massive amyloid aggregation takes place) with daily sub-cutaneous injection of CLR01 over a period of 4.5 months.

[10] = systemic administration, mice; cited from earlier work
MPS-IIIA mice [11] = test: GFAP and IBA1 staining of neuro-inflammation in brain; format: in vivo, mouse
MPS-IIIA mice [12] = test: Anti-LC3 immunofluorescence on brain sections; format: in vivo, mouse
Text: FIG. 9. Panels A and B, show anti-LC3 immunofluorescence on brain sagittal sections from the four experimental groups of mice. The number of LC3-positive dots (either total or large dots) were quantified in 15 different fields from the cortical regions for each group. Three mice for each experimental group. […] Panel C) Immunofluorescence analysis of colocalization in MPS-IIIA mice brain sagittal sections between LC3 (green) and Lamp1 (red), LC3 (green) and Neurofilament (red). […] Panel E) Immunohistochemistry analysis of anti-Ubiquitin K63 signal on brain sagittal sections derived from the four experimental groups of mice. Images from cerebral cortex shown. UbK63 immuno-reactivity quantified in 10 different fields from the cortical regions from each group.
as §5
In healthy neurons autophagosomes are efficiently cleared upon axonal retrograde transport and lysosomal encountering and, therefore, are rarely found in neurites or cell bodies unless lysosomal-dependent autophagosome clearance is disrupted (Boland et al. (2008) J. Neurosci. 28: 6926-6937; Maday et al. (2012) J. Cell Biol. 196: 407-417; Lie & Nixon (2019) Neurobiol. Dis. 122: 94-105).

WT mice [13] = settings: daily s.c. injection for 4.5 months; remark: listed apart in the source
Text: Panel C) IHC anti-Lamp-on brain sagittal sections derived from the four experimental groups of mice (WT saline-injected, WT CLR01-injected, MPS-IIIA-saline injected and MPS-IIIA CLR01-injected). Images from cerebral cortex shown. Lamp 1 immuno-reactivity quantified in 10 different fields from the cortical regions for each group. Three mice for each experimental group. ***p<0.001 vs WT; ###P<0.001 vs MPS-IIIA+saline, One-way ANOVA analysis with Bonferroni's multiple comparison test. Panels D and E) TEM analysis to quantify the number/size of lysosomes in the four experimental group of mice. Three mice for each experiment group. Representative TEM images were shown on the left panel. *, **, *** p<0.05, 0.01, 0.001 vs WT; ##, ###, P<0.01, 0.001 vs MPS-IIIA+saline, One-way ANOVA analysis with Bonferroni's multiple comparison test.

WT mice [14] = test: Lysosomal autophagic axis in WT mice; format: in vivo, mouse; settings: WT mice upon treatment
Text: Therefore, the present data support a model in which progressive amyloid build-up into lysosomes impairs autophagic flux. Mechanisms underlying such effect involve the negative impact of amyloids on autophagosome clearance through the prevention of lysosome encountering. […] This might be a consequence of the relief of the autophagy block and/or might be a result of a more specific effect of CLR01 on lysosomal-mediated signaling pathways inducing ALP, signaling that may be impaired by amyloid deposition in MPS-IIIA.

[15] = system: mouse models of synucleinopathies and Alzheimer's disease; settings: cited from earlier work
[16] = systemic administration; cited from earlier work
MPS-IIIA mice [17] = settings: mouse, in vivo, sc, 1 mg/kg/day
MPS-IIIA mice [18] = test: Western blot of LC3-II and p62 on brain lysates; format: in vivo, mouse
[19] = MPS-IIIA brain, daily s.c. injection for 4.5 months
[20] = CLR01-treated MPS-IIIA brain vs WT
[21] = MPS-IIIA brain lysates, CLR01 vs saline

Structure (SMILES): O=P(O)(O)Oc1c2c(c(OP(=O)(O)O)c3c1C1CC3c3cc4c(cc31)C1CC4c3ccccc31)C1CC2c2cc3c(cc21)C1CC3c2ccccc21 [CLR01]
- LAMP1 compartment volume (WT mice [1]): did not modify LAMP1 compartment volume
- total number of lysosomes (MPS-IIIA mice [2]; CLR01-treated MPS-IIIA brain vs control MPS-IIIA mice): remained significantly higher than control MPS-IIIA mice
- average lysosomal size (EM) (MPS-IIIA mice [2]; [19]): significant reduction in the average lysosomal size
- number of abnormal-sized lysosomes (>800 nm) (MPS-IIIA mice [2]; [19]): decreased number of abnormal-sized lysosomes
- LAMP1-positive immunostaining, cerebral cortex (MPS-IIIA mice [3]): markedly reduced LAMP1-positive immunostaining
- UbK63 IHC signal, cerebral cortex (MPS-IIIA mice [4]): significant signal reduction
- memory deficit (freezing time, contextual fear conditioning) (MPS-IIIA mice [5]): rescue of memory deficits; also recorded: fully rescued
- synaptic abnormalities (synaptic vesicles/synaptic cleft length ratio, TEM) (MPS-IIIA mice [6]): able to rescue synaptic abnormalities
- LC3 staining (WT mice [7]): a significant change in LC3 staining was observed
- inflammatory response by GFAP and Iba1 IHC (WT mice [8]): did not elicit inflammatory response
- thioflavin-positive inclusions / amyloid deposition in brain (MPS-IIIA mice [9]; MPS-IIIA mice, daily s.c. injection for 4.5 months from 4.5 months of age, analysed at 9 months): reduction of amyloid deposition; also recorded: almost complete absence of thioflavin-positive inclusions
- amyloid proteins by Thioflavin S staining (MPS-IIIA mice [9]; asymptomatic MPS-IIIA mice, 1 mg/kg/day s.c. osmotic pump, 2 months from 5 months of age, analysed at 7 months): complete disappearance of amyloid proteins
- amyloid deposits by Thioflavin S staining in different brain regions (MPS-IIIA mice [9]; symptomatic MPS-IIIA mice, 1 mg/kg/day s.c. osmotic pump, 1 month from 6 months of age, analysed at 7 months): partial removal of amyloid deposits
- safety margin [10]: high safety margin
- neuroinflammatory markers GFAP and IBA1, immunofluorescence (MPS-IIIA mice [11]; 2 months of treatment, at 7 months of age): strong reduction of inflammation
- neuro-inflammation by GFAP and Iba1 IHC, cortex and striatum (MPS-IIIA mice [11]; daily s.c. injection for 4.5 months, 9 months of age): reduction in both inflammatory markers; also recorded: strongly reduced neuro-inflammation
- number of LC3 dots (both large and normal sized) compared to WT brain (MPS-IIIA mice [12]; [20]): remained significantly higher compared to WT brain
- autophagic flux / autophagy block (MPS-IIIA mice [12]; MPS-IIIA brain, conclusion from LC3 dots): autophagic flux was re-activated; also recorded: able to relief autophagy block
- large LC3 dots (>0.8 μm^2) (MPS-IIIA mice [12]; MPS-IIIA brain, cortical regions, daily s.c. injection for 4.5 months): significantly reduced large LC3 dots
- lysosome size/number (WT mice [13]): did not affect lysosome size/number
- lysosomal autophagic axis (WT mice [14]): no significant change in lysosomal autophagic axis
- protection against protein aggregation and neurodegeneration [15]: very effective in protecting against protein aggregation and neurodegeneration
- brain targeting / blood-brain barrier crossing [16]: cross the blood-brain barrier
- build-up of amyloid components (α-Synuclein, PrP, Aβ1-42, Tau), proteinase K-resistant (MPS-IIIA mice [17]): efficient inhibition of the build-up of several amyloid components
- LC3-II levels compared to WT (MPS-IIIA mice [18]; [20]): remained significantly higher than WT
- LC3-II protein level (Western blot, normalized to β-actin) (MPS-IIIA mice [18]; [21]): reduction; also recorded: damped down
- p62 protein level (Western blot, normalized to β-actin) (MPS-IIIA mice [18]; [21]): reduction; also recorded: damped down
